Legend:
[1] = tested on: NPR cleavage at Site A (TACE); assay: NPR cleavage assay in transfected HEK293T cells; type: cell-based, rat; conditions: TAPI-2 50 μM; GM6001 25 μM
Protocol: Cleavage Assay HEK293T cells were plated in OptiMEM (Invitrogen, Carlsbad, Calif.) containing 5% FBS onto 6-well dishes at a density of 4×10^5 cells/mL (2 mL/well) 1 day before transfection. Cells were transfected with NPR in pRK5 using LipofectAMINE 2000 (Invitrogen, Carlsbad Calif.). After 24 hr the medium was replaced with serum-free OptiMEM. […] Samples from each well were obtained at specific time points, immediately placed on ice, centrifuged at 15,000 g to remove cell debris, and then treated with 2% β-mercaptoethanol containing loading buffer. At the end of the time course, the cells were lysed with RIPA buffer, centrifuged to remove cell debris, and treated with 2% β-mercaptoethanol in loading buffer. Samples (20 μL of medium or lysate diluted to 1/5) were run on SDS-PAGE gels and analyzed by Western blotting.

[2] = tested on: cultured cerebellar Purkinje cells; assay: Basal electrophysiological properties and Ca2+ imaging in cultured cerebellar Purkinje cells; type: cell-based, mouse; conditions: TAPI-2 10 μM; GM6001 1 μM; GM6001 control 1 μM; mean ± SEM
Protocol: (§1) Recording and Ca^2+ imaging in cerebellar cultures. Cultures of embryonic mouse cerebellum were prepared as previously described and recordings were performed according to our previously published method (Leitges et al., Neuron 44:585-94, 2004). […]. Test pulses were delivered using negative current pulses (300-700 nA, 30-80 msec duration). LTD-inducing pairing stimuli consisted of six, 3-s-long depolarizations to 0 mV, each delivered together with a test pulse of glutamate.
(§2) Membrane currents were recorded with an Axopatch 200A amplifier, and digitized at 10 kHz for exogenous glutamate responses and 20 kHz for mEPSCs. Signals were lowpass filtered at 5 kHz (1 kHz for mEPSCs) and acquired using Axograph X software (Axograph Scientific, Sydney, Australia). Recordings in which Rinput or Rseries varied by more than 10% were excluded from the analysis. For analysis of mEPSCs, Axograph X mini analysis software was used. This detected events based on closeness of fit of the mEPSC to a sliding template. Events smaller than − ? 4 pA were discarded. A separate template was created for each recording by averaging 30 of its most unambiguous mEPSCs as selected by eye.
Bis-Fura-2 ratio imaging of intracellular free Ca^2+ in the dendritic shafts of cultured Purkinje cells was accomplished by measuring the background corrected fluorescence ratio at 340 and 380 nm excitation using a cooled CCD camera system. In these experiments, EGTA was removed from the internal saline and replaced with 100 μM bis-Fura-2.

[3] = tested on: LFC-NPR (TACE cleavage of NPR); assay: Western blot of LFC-NPR in lysates of cultured cortical neurons after DHPG; type: cell-based
Protocol: Cell Culture, Transfection, Western Blot Analysis, and Co-immunoprecipitation analysis. HEK293T and […] (ATCC, Manassas, Va.) cell maintenance and transfection methods have been described previously (Xu et al., supra). Preparation and transfection of cultured hippocampal neurons were described previously (Rumbaugh et al., J Neurosci 23:4567-76, 2003). Western blot analysis of homogenates of HEK293T cells, cultured neurons, and brain extracts was performed as described previously (Xu et al., supra). Co-IP analysis to measure interaction between NPR and AMPAR was performed as described (Xu et al., supra).
Ab LFC-NPR was used to examine the possibility that mGluR1/5 might regulate cleavage of NPR. mGluR1/5 activates PKC via phospholipase C and the production of diacylglycerol (DAG) and inositol triphosphate (IP3) that releases intracellular Ca^2+. […] Ab LFC-NPR detected a ˜60 kDa band from lysates that increased in intensity (expressed as a percent control) over time after stimulation with DHPG. No specific band was detected in the medium by Ab LFC-NPR or other NPR Abs. Absence of LFC-NPR in the medium of neurons was consistent with the observation that both Narp and NP1 were absent from medium even though they are secreted proteins detected on the cell surface using live labeling methods. […]

[4] = tested on: Purkinje cells cultured from embryonic mouse cerebellum; assay: LTD of glutamate-evoked inward current in cultured Purkinje cells (glutamate test pulses paired with depolarizing steps); type: cell-based; conditions: t=40 min; TAPI-2 10 μM, GM6001 1 μM, GM6001 control compound 1 μM; n=7
Protocol: as §1, §2
Other studies have shown that LTD in Purkinje cells cultured from embryonic mouse cerebellum requires activation of mGluR1, and is expressed postsynaptically as a reduction in surface AMPA receptors (Chung et al., Science 300:1751-5, 2003; Leitges et al., Neuron 44:585-94, 2004; Linden, PNAS 98:14066-71, 2001; Matsuda et al., EMBO J. 19:2765-74, 2000; Steinberg et al., Neuron 49:845-60, 2006; Wang and Linden, Neuron 25:635-47, 2000). Here, LTD was examined using a purely postsynaptic model in which iontophoretic test pulses of glutamate are applied to voltage-clamped Purkinje cells in culture. Following a baseline recording period, LTD was induced by pairing six 3 sec long depolarizing steps to 0 mV with six glutamate test pulses. When test pulses were resumed after pairing, LTD of the glutamate-evoked inward current was evident (52±9.0% of baseline at t=40 min, n=7 cells, FIG. 6A). […]

| Compound | PMA-stimulated cleavage at Site A / secretion of LFC-NPR into the medium [1] | DHPG-evoked (dendritic Ca2+ transient) [2] [nM] | Depol-evoked (dendritic Ca2+ transient) [2] [nM] | Resting Ca2+ [2] [nM] | mEPSC 10-90% rise [2] [msec] | mEPSC 50% decay [2] [ms] | mEPSC amp [2] [pA] | DHPG-stimulated increase in LFC-NPR ([3]; pretreatment of cultured neurons with TAPI-2) | glutamate-evoked inward current after LTD induction [4] | increase of LFC-NPR levels in lysates ([3]; 90 minutes after stimulation with 50 μM DHPG for 5 minutes, cultured cortical neurons ~DIV 14) |
| --- | --- | --- | --- | --- | --- | --- | --- | --- | --- | --- |
| CC(C)C[C@H](CC(=O)NO)C(=O)N[C@H](C(=O)N[C@@H](C)C(=O)NCCN)C(C)(C)C [TAPI-2] | inhibited | 231 ± 35 | 604 ± 89 | 109 ± 22 | 1.8 ± 0.4 | 7.7 ± 0.6 | 27 ± 7 | blocked | 112±8.6 % of baseline | – |
| N[C@H](C(=O)O)c1cc(O)cc(O)c1 [DHPG, (S)-3,5-dihydroxyphenylglycine] | – | – | – | – | – | – | – | – | – | 60.7%±2.5% |
